Data: patent publication US8829007B2 (priority 2009, dated 2014)
pEC50, pIC50: −log10 of the molar value. Read-outs that look alike come from different tables or passages of the source.

Assays:
[1] = tested on: A/PR/8/34 influenza virus; assay: microbe, parasite or virus in culture; assay type: cell-based; conditions: Influenza A virus, PR/8, MDCK
[2] = tested on: influenza A virus (A/PR/8/34); assay: microbe, parasite or virus in culture; assay type: cell-based; conditions: Influenza A virus, PR/8, MDCK
[3] = MDCK cells infected with A/PR/8/34, bDNA viral RNA, read-out: EC50 (mean all)
[4] = MDCK cells infected with A/PR/8/34, cell protection (CPE), read-out: IC50 (mean all)
[5] = mean all, A/PR/8/34 influenza virus in MDCK cells, bDNA assay, read-out: EC50
[6] = mean all, A/PR/8/34 infected MDCK cells, CPE assay, read-out: IC50

With `C#CCCCC(=O)N1CCCC[C@@H]1CNc1nc(-c2c[nH]c3ncc(Cl)cc23)ncc1F` [Compound 281, (R)-1-(2-((2-(5-chloro-1H-pyrrolo[2,3-b]pyridin-3-yl)-5-fluoropyrimidin-4-ylamino)methyl)piperidin-1-yl)hex-5-yn-1-one] the pEC50 [1, 3] was over 5.30 and the pIC50 [2, 4] was over 5.30.
In the case of `O=C(CCc1ccccc1)N1CCCC[C@@H]1CNc1nc(-c2c[nH]c3ncc(Cl)cc23)ncc1F` [Compound 293, (R)-1-(2-((2-(5-chloro-1H-pyrrolo[2,3-b]pyridin-3-yl)-5-fluoropyrimidin-4-ylamino)methyl)piperidin-1-yl)-3-phenylpropan-1-one], the pEC50 [1, 3] was over 5.30 and the pIC50 [2, 4] was over 5.30.
Work on `CCCC(=O)N1CCCC[C@@H]1CNc1nc(-c2c[nH]c3ncc(Cl)cc23)ncc1F` [Compound 295, (R)-1-(2-((2-(5-chloro-1H-pyrrolo[2,3-b]pyridin-3-yl)-5-fluoropyrimidin-4-ylamino)methyl)piperidin-1-yl)butan-1-one] yielded a pEC50 [1, 3] of over 5.30 and a pIC50 [2, 4] of over 5.30.
Molecule `CCCS(=O)(=O)N1CCC[C@H](Nc2nc(-c3c[nH]c4ncc(Cl)cc34)ncc2F)C1` [Compound 306, (S)-2-(5-chloro-1H-pyrrolo[2,3-b]pyridin-3-yl)-5-fluoro-N-(1-(propylsulfonyl)-piperidin-3-yl)pyrimidin-4-amine] has a pEC50 [1, 5] of over 5.30 and a pIC50 [2, 6] of over 5.30.
For `CCCS(=O)(=O)N1CCC[C@@H](Nc2nc(-c3c[nH]c4ncc(Cl)cc34)ncc2F)C1` [Compound 316, (R)-2-(5-chloro-1H-pyrrolo[2,3-b]pyridin-3-yl)-5-fluoro-N-(1-(propylsulfonyl)piperidin-3-yl)pyrimidin-4-amine], the pEC50 [1, 5] was over 5.30 and the pIC50 [2, 6] was 4.70 to 5.30.
For `O=C(C1CC1)N1CCC[C@@H](Nc2nc(-c3c[nH]c4ncc(Cl)cc34)ncc2F)C1` [Compound 317], the pEC50 [1, 5] was over 5.30 and the pIC50 [2, 6] was 4.70 to 5.30.
With `CC(C)CC(=O)N1CCC[C@@H](Nc2nc(-c3c[nH]c4ncc(Cl)cc34)ncc2F)C1` [Compound 318] the pEC50 [1, 5] was over 5.30 and the pIC50 [2, 6] was under 4.70.
For `O=C(C1CCC1)N1CCC[C@@H](Nc2nc(-c3c[nH]c4ncc(Cl)cc34)ncc2F)C1` [Compound 319], the pEC50 [1, 5] was over 5.30 and the pIC50 [2, 6] was under 4.70.
`COCCC(=O)N1CCC[C@@H](Nc2nc(-c3c[nH]c4ncc(Cl)cc34)ncc2F)C1` [Compound 320] showed a pEC50 [1, 5] of 5.00 to 5.30 and a pIC50 [2, 6] of 4.70 to 5.30.
In the case of `CCS(=O)(=O)N1CCC[C@@H](Nc2nc(-c3c[nH]c4ncc(Cl)cc34)ncc2F)C1` [Compound 321, (R)-2-(5-chloro-1H-pyrrolo[2,3-b]pyridin-3-yl)-N-(1-(ethylsulfonyl)piperidin-3-yl)-5-fluoropyrimidin-4-amine], the pEC50 [1, 5] was over 5.30 and the pIC50 [2, 6] was 4.70 to 5.30.
In the case of `CC(C)S(=O)(=O)N1CCC[C@@H](Nc2nc(-c3c[nH]c4ncc(Cl)cc34)ncc2F)C1` [Compound 322, (R)-2-(5-chloro-1H-pyrrolo[2,3-b]pyridin-3-yl)-5-fluoro-N-(1-(isopropylsulfonyl)-piperidin-3-yl)pyrimidin-4-amine], the pEC50 [1, 5] was over 5.30 and the pIC50 [2, 6] was under 4.70.
`CCCCNC(=O)N1CCC[C@H](Nc2nc(-c3c[nH]c4ncc(Cl)cc34)ncc2F)C1` [Compound 323] was tested, and the pEC50 [1, 5] was over 5.30 and the pIC50 [2, 6] was under 4.70.
Work on `CCCNC(=O)N1CCC[C@H](Nc2nc(-c3c[nH]c4ncc(Cl)cc34)ncc2F)C1` [Compound 324] yielded a pEC50 [1, 5] of over 5.30 and a pIC50 [2, 6] of 4.70 to 5.30.
Work on `O=C(C1CC1)N1CCC[C@H](CNc2nc(-c3c[nH]c4ncc(Cl)cc34)ncc2F)C1` [Compound 325, (R)-(3-((2-(5-chloro-1H-pyrrolo[2,3-b]pyridin-3-yl)-5-fluoropyrimidin-4-ylamino)methyl)piperidin-1-yl)(cyclopropyl)methanone] yielded a pEC50 [1, 5] of over 5.30 and a pIC50 [2, 6] of 4.70 to 5.30.
`CCCCC(=O)N1CCCC[C@@H]1CNc1nc(-c2c[nH]c3ncc(Cl)cc23)ncc1F` [Compound 326, (R)-1-(2-((2-(5-chloro-1H-pyrrolo[2,3-b]pyridin-3-yl)-5-fluoropyrimidin-4-ylamino)methyl)piperidin-1-yl)pentan-1-one] gave a pEC50 [1, 5] of over 5.30 and a pIC50 [2, 6] of 4.70 to 5.30.
`COCCC(=O)N1CCC[C@H](CNc2nc(-c3c[nH]c4ncc(Cl)cc34)ncc2F)C1` [Compound 327, (R)-1-(3-((2-(5-chloro-1H-pyrrolo[2,3-b]pyridin-3-yl)-5-fluoropyrimidin-4-ylamino)methyl)piperidin-1-yl)-3-methoxypropan-1-one] gave a pEC50 [1, 5] of over 5.30 and a pIC50 [2, 6] of over 5.30.
For `O=S(=O)(CCCCl)N1CCCC[C@@H]1CNc1nc(-c2c[nH]c3ncc(Cl)cc23)ncc1F` [Compound 330, (R)-2-(5-chloro-1H-pyrrolo[2,3-b]pyridin-3-yl)-N-((1-(3-chloropropylsulfonyl)piperidin-2-yl)methyl)-5-fluoropyrimidin-4-amine], the pEC50 [1, 5] was over 5.30 and the pIC50 [2, 6] was over 5.30.
In the case of `CC(C)CC(=O)N1CCC[C@H](Nc2nc(-c3c[nH]c4ncc(Cl)cc34)ncc2F)C1` [Compound 332], the pEC50 [1, 5] was over 5.30 and the pIC50 [2, 6] was over 5.30.
Work on `CCNC(=O)N1CCCC[C@@H]1CNc1nc(-c2c[nH]c3ncccc23)ncc1F` [Compound 373, (R)—N-ethyl-2-((5-fluoro-2-(1H-pyrrolo[2,3-b]pyridin-3-yl)pyrimidin-4-ylamino)-methyl)piperidine-1-carboxamide] yielded a pEC50 [1, 5] of under 5.00 and a pIC50 [2, 6] of 4.70 to 5.30.
With `CCCNC(=O)N1CCCC[C@@H]1CNc1nc(-c2c[nH]c3ncccc23)ncc1F` [Compound 375, (R)-2-((5-fluoro-2-(1H-pyrrolo[2,3-b]pyridin-3-yl)pyrimidin-4-ylamino)methyl)-N-propylpiperidine-1-carboxamide] the pEC50 [1, 5] was 5.00 to 5.30 and the pIC50 [2, 6] was 4.70 to 5.30.
Work on `CN1CCC(Nc2nc(-c3c[nH]c4ncc(Cl)cc34)ncc2F)C1=O` (stereo not shown) [Compound 379] yielded a pEC50 [1, 5] of over 5.30 and a pIC50 [2, 6] of 4.70 to 5.30.
`CS(=O)(=O)N1CCCC[C@@H]1CNc1nc(-c2c[nH]c3ncc(Cl)cc23)ncc1F` [Compound 381, (R)-2-(5-chloro-1H-pyrrolo[2,3-b]pyridin-3-yl)-5-fluoro-N-((1-(methylsulfonyl)-piperidin-2-yl)methyl)pyrimidin-4-amine] showed a pEC50 [1, 5] of over 5.30 and a pIC50 [2, 6] of over 5.30.
For `CCS(=O)(=O)N1CCCC[C@@H]1CNc1nc(-c2c[nH]c3ncc(Cl)cc23)ncc1F` [Compound 382, (R)-2-(5-chloro-1H-pyrrolo[2,3-b]pyridin-3-yl)-5-fluoro-N-((1-(ethylsulfonyl)-piperidin-2-yl)methyl)pyrimidin-4-amine], the pEC50 [1, 5] was over 5.30 and the pIC50 [2, 6] was over 5.30.
Work on `O=S(=O)(CC(F)(F)F)N1CCCC[C@@H]1CNc1nc(-c2c[nH]c3ncc(Cl)cc23)ncc1F` [Compound 383, (R)-2-(5-chloro-1H-pyrrolo[2,3-b]pyridin-3-yl)-5-fluoro-N-((1-(2,2,2-trifluoro-ethylsulfonyl)-piperidin-2-yl)methyl)pyrimidin-4-amine] yielded a pEC50 [1, 5] of over 5.30 and a pIC50 [2, 6] of over 5.30.
In the case of `CS(=O)(=O)N1CCC[C@H](Nc2nc(-c3c[nH]c4ncc(Cl)cc34)ncc2F)C1` [Compound 389, (S)-2-(5-chloro-1H-pyrrolo[2,3-b]pyridin-3-yl)-5-fluoro-N-(1-(methylsulfonyl)piperidin-3-yl)pyrimidin-4-amine], the pEC50 [1, 5] was over 5.30 and the pIC50 [2, 6] was over 5.30.
In the case of `CCCCS(=O)(=O)N1CCC[C@H](Nc2nc(-c3c[nH]c4ncc(Cl)cc34)ncc2F)C1` [Compound 390, (S)—N-(1-(butylsulfonyl)piperidin-3-yl)-2-(5-chloro-1H-pyrrolo[2,3-b]pyridin-3-yl)-5-fluoropyrimidin-4-amine], the pEC50 [1, 5] was over 5.30 and the pIC50 [2, 6] was over 5.30.
